According to US9120749B2, “Quinoline derivatives and MELK inhibitors containing the same” (ONCOTHERAPY SCIENCE, INC., priority 2010, dated 2015):
Where a name gives a salt, the structure may show the parent alone. Read-outs that look alike come from different tables or passages of the source.

How the values were obtained:
[1] = tested on: 22Rv1 cells; test: Cell-based assay: anti-proliferative activity, Cell Counting Kit-8, 72 hours (22Rv1)
[2] = tested on: HT-1197 cells; test: Cell-based assay: anti-proliferative activity, Cell Counting Kit-8, 72 hours (HT-1197, negative control without MELK expression); conditions: HT1197 cells (negative control, no MELK expression), 72 hours
Procedure, shortened: (§1)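 IC50 values come from CCK-8 growth measurements taken 72 hours post-treatment of plated cells with test compounds. Expression of MELK across the panel was assessed through immunoblot of unfractionated lysates.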

[3] = tested on: DU4475 cells; test: Cell-based assay: anti-proliferative activity, Cell Counting Kit-8, 72 hours (DU4475)
[4] = biological target: MELK (Homo sapiens, UniProt Q14680); test: Kinase assay: MELK activity, phosphorylation of FITC-labeled histone H3 peptide measured by IMAP fluorescence polarization; assay type: biochemical; conditions: read-out: IC50 (μM) (kinase assay)
Chain of MELK (Q14680 whole entry, looked up): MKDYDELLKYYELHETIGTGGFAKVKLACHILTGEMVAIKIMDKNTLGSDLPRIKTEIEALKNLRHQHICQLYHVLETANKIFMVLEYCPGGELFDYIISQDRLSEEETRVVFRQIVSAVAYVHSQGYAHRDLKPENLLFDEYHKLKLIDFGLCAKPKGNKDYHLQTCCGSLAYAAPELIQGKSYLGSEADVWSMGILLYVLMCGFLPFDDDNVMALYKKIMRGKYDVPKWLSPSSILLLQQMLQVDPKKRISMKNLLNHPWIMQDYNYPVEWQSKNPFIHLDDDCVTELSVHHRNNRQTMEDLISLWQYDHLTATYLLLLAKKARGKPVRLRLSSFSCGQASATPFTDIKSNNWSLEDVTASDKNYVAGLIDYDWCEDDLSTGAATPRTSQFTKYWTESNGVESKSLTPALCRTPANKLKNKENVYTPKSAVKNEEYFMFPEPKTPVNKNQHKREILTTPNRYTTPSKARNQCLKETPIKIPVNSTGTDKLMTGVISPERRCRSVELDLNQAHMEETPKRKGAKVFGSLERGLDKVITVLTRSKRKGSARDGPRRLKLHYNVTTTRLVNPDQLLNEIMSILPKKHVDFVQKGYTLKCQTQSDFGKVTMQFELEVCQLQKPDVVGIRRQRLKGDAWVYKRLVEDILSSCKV
Procedure, shortened: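 Substrate is FITC-labeled histone H3 peptide. Compounds come from a 12.5 mM DMSO stock, diluted so assay DMSO is 1%. The stop step adds threefold-volume progressive binding solution, followed by 0.5 h at room temperature and an FP read.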

[5] = tested on: T47D cells; test: Cell-based assay: anti-proliferative activity, Cell Counting Kit-8, 72 hours (T47D)
Procedure, shortened: as §1

[6] = tested on: A549 cells; test: Cell-based assay: anti-proliferative activity, Cell Counting Kit-8, 72 hours (A549); conditions: 72 hours
Procedure, shortened: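 A549 cells were seeded in 96-well plates and exposed to candidate inhibitors for 72 hours. Cell growth was then measured with Cell Counting Kit-8, and IC50 values were calculated from the resulting growth data.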

[7] = MELK kinase assay, IMAP fluorescence polarization, 50 micro-M ATP

Row | SMILES | IC50 ([1]; hydrochloride) | IC50 ([2]; hydrochloride) | IC50 ([3]; hydrochloride) | IC50 ([4]; MELK kinase assay, IMAP fluorescence polarization, 50 micro-M ATP, hydrochloride) | IC50 ([5]; 72 hours, hydrochloride) | IC50 ([6]; hydrochloride) | IC50 ([1]; Homo sapiens, 22Rv1, 72 h) | IC50 ([2]; Homo sapiens, HT1197, 72 h) | IC50 ([3]; Homo sapiens, DU-4475, 72 h) | IC50 [4, 7] | IC50 ([5]; Homo sapiens, T47D, 72 h) | IC50 ([6]; Homo sapiens, A549, 72 h) | IC50 [4] | IC50 ([4]; hydrochloride)
1 | CC(=O)c1cnc2ccc(-c3cc(Cl)c(O)c(Cl)c3)cc2c1Nc1ccc(N2CCC(N(C)C)C2)nc1 (stereo not drawn) [Example 855, 1-(6-(3,5-dichloro-4-hydroxyphenyl)-4-((6-(3-(dimethylamino)pyrrolidin-1-yl)pyridin-3-yl)amino)quinolin-3-yl)ethanone hydrochloride] | 0.64 µM | 73 µM | 0.23 µM | 0.0021 µM | 0.26 µM | 0.38 µM |  |  |  |  |  |  |  | 
2 | CC(=O)c1cnc2ccc(-c3cc(F)c(O)c(Cl)c3)cc2c1N[C@H]1CC[C@H](CN2CCC[C@H]2CO)CC1 [Example 844, 1-(6-(3-chloro-5-fluoro-4-hydroxyphenyl)-4-((1S,4r)-4-(((S)-2-(hydroxymethyl)pyrrolidin-1-yl)methyl)cyclohexylamino)quinolin-3-yl)ethanone] |  |  |  |  |  |  | 0.18 µM | 3.3 µM | 0.092 µM | 0.0046 µM | 0.067 µM | 0.18 µM |  | 
3 | CCC(=O)c1cnc2ccc(-c3cc(F)c(O)c(Cl)c3)cc2c1Nc1ccc(CN(C)C)cc1 [Example 770, 1-(6-(3-chloro-5-fluoro-4-hydroxyphenyl)-4-((4-((dimethylamino)methyl)phenyl)amino)quinolin-3-yl)propan-1-one] |  |  |  |  |  |  | 0.17 µM | 0.84 µM | 0.062 µM |  | 0.074 µM | 0.11 µM | 0.015 µM | 
4 | CC(=O)c1cnc2ccc(-c3cc(Cl)c(O)c(Cl)c3)cc2c1Nc1ccc(OCCN(C)C)nc1 [Example 852, 1-(6-(3,5-dichloro-4-hydroxyphenyl)-4-(6-(2-(dimethylamino)ethoxy)pyridin-3-ylamino)quinolin-3-yl)ethanone hydrochloride] |  |  |  |  |  |  | 0.55 µM | 22 µM | 0.088 µM | 0.0028 µM | 0.16 µM | 0.29 µM |  | 
5 | CC(=O)c1cnc2ccc(-c3cc(F)c(O)c(Cl)c3)cc2c1NC1CCC(C(=O)N2CCN(C)CC2)CC1 (stereo not drawn) [Example 849, 1-(6-(3-chloro-5-fluoro-4-hydroxyphenyl)-4-(4-(4-methylpiperazine-1-carbonyl)cyclohexylamino)quinolin-3-yl)ethanone hydrochloride] |  |  |  |  |  |  | 1 µM | 4.5 µM | 1 µM | 0.018 µM | 0.47 µM | 1.3 µM |  | 
6 | CC(=O)c1cnc2ccc(-c3cc(Cl)c(O)c(Cl)c3)cc2c1N[C@H]1CC[C@H](CN2CCNCC2)CC1 [Example 772, 1-(6-(3,5-dichloro-4-hydroxyphenyl)-4-((trans-4-(piperazin-1-ylmethyl)cyclohexyl)amino)quinolin-3-yl)ethanone dihydrochloride] |  |  |  |  |  |  | 0.14 µM | 3.2 µM | 0.076 µM |  | 0.058 µM | 0.26 µM | 0.0021 µM | 
7 | CN(C)CCNc1ccc(Nc2c(C(=O)C3CC3)cnc3ccc(-c4cc(Cl)c(O)c(Cl)c4)cc23)cn1 [Example 748, cyclopropyl(6-(3,5-dichloro-4-hydroxyphenyl)-4-(6-(2-(dimethylamino)ethylamino)pyridin-3-ylamino)quinolin-3-yl)methanone hydrochloride] |  | 1.6 µM | 0.032 µM |  | 0.088 µM | 0.069 µM | 0.1 µM |  |  |  |  |  |  | 0.0026 µM
8 | CN1CCN(CCc2cccc(Nc3c(C(=O)C4CC4)cnc4ccc(-c5cc(F)c(O)c(Cl)c5)cc34)c2)CC1 [Example 828, (6-(3-chloro-5-fluoro-4-hydroxyphenyl)-4-(3-(2-(4-methylpiperazin-1-yl)ethyl)phenylamino)quinolin-3-yl)(cyclopropyl)methanone] |  |  |  |  |  |  | 0.72 µM | 9.5 µM | 0.16 µM | 0.017 µM | 5.7 µM | 0.23 µM |  | 
9 | CC(=O)c1cnc2ccc(-c3cc(F)c(O)c(Cl)c3)cc2c1Nc1cnn(C2CCN(C)CC2)c1 [Example 805, 1-(6-(3-chloro-5-fluoro-4-hydroxyphenyl)-4-(1-(1-methylpiperidin-4-yl)-1H-pyrazol-4-ylamino)quinolin-3-yl)ethanone hydrochloride] |  |  |  |  |  |  | 0.32 µM | 2.4 µM | 0.11 µM |  | 0.17 µM | 0.34 µM | 0.0028 µM | 
10 | COc1cc(-c2ccc3ncc(C(C)=O)c(N[C@H]4CC[C@H](CN5CCN(C)CC5)CC4)c3c2)cc(Cl)c1O [Example 787, 1-(6-(3-chloro-4-hydroxy-5-methoxyphenyl)-4-(1R,4R)-4-((4-methylpiperazin-1-yl)methyl)cyclohexylamino)quinolin-3-yl)ethanone hydrochloride] |  |  |  |  |  |  | 0.72 µM | 5.2 µM | 2.7 µM |  | 0.48 µM | 0.44 µM | 0.0058 µM | 
11 | CCN(CC)C[C@H]1CC[C@H](Nc2c(C(C)=O)cnc3ccc(-c4cc(Cl)c(O)c(Cl)c4)cc23)CC1 [Example 790] |  |  |  |  |  |  | 0.14 µM | 4.2 µM | 0.098 µM |  | 0.1 µM | 0.14 µM | 0.0018 µM | 
12 | CC(=O)c1cnc2ccc(-c3cc(F)c(O)c(Cl)c3)cc2c1NC1CCCN(CCN(C)C)C1 (stereo not drawn) [Example 851, 1-(6-(3-chloro-5-fluoro-4-hydroxyphenyl)-4-(1-(2-(dimethylamino)ethyl)piperidin-3-ylamino)quinolin-3-yl)ethanone] |  |  |  |  |  |  | 1.5 µM | 6 µM | 0.65 µM | 0.04 µM | 1.6 µM | 1.6 µM |  | 
13 | O=C(c1cnc2ccc(-c3cc(F)c(O)c(Cl)c3)cc2c1Nc1cccc(CCN2CCCC2)c1)C1CC1 [Example 799, {6-(3-Chloro-5-fluoro-4-hydroxyphenyl)-4-[3-(2-(pyrrolidin-1-yl)ethyl)phenylamino]quinolin-3-yl}(cyclopropyl)methanone] |  |  |  |  |  |  | 0.25 µM | 10 µM | 0.079 µM |  | 0.52 µM | 0.081 µM | 0.0047 µM | 
14 | CC(=O)c1cnc2ccc(-c3cc(F)c(O)c(Cl)c3)cc2c1N[C@H]1CC[C@H](CN2CCN(C)CC2)CC1 [Example 781, 1-(6-(3-chloro-5-fluoro-4-hydroxyphenyl)-4-(1R,4R)-4-((4-methylpiperazin-1-yl)methyl)cyclohexylamino)quinolin-3-yl)ethanone hydrochloride] |  |  |  |  |  |  | 0.34 µM | 3.3 µM | 0.19 µM |  | 0.1 µM | 0.2 µM | 0.013 µM | 
15 | O=C(c1cnc2ccc(-c3cc(F)c(O)c(F)c3)cc2c1Nc1ccc(CN2CCCC2)nc1)C1CC1 [Example 795, cyclopropyl(6-(3,5-difluoro-4-hydroxyphenyl)-4-(6-(pyrrolidin-1-ylmethyl)pyridin-3-ylamino)quinolin-3-yl)methanone] |  |  |  |  |  |  | 0.83 µM | 3.5 µM | 0.31 µM |  | 0.51 µM | 0.34 µM | 0.035 µM | 
16 | CC(=O)c1cnc2ccc(-c3cc(F)c(O)c(Cl)c3)cc2c1N[C@H]1CC[C@H](CN2CCC[C@@H]2CO)CC1 [Example 808, 1-(6-(3-chloro-5-fluoro-4-hydroxyphenyl)-4-(1R,4R)-4-(((R)-2-(hydroxymethyl)pyrrolidin-1-yl)methyl)cyclohexylamino)quinolin-3-yl)ethanone hydrochloride] |  |  |  |  |  |  | 0.22 µM | 8.2 µM | 0.11 µM |  | 0.12 µM | 0.22 µM | 0.0065 µM | 
17 | COc1cc(-c2ccc3ncc(C(C)=O)c(N[C@H]4CC[C@H](CN5CCC(N)C5)CC4)c3c2)cc(Cl)c1O (stereo partly drawn) [Example 780, 1-(4-(1R,4R)-4-((3-aminopyrrolidin-1-yl)methyl)cyclohexylamino)-6-(3-chloro-4-hydroxy-5-methoxyphenyl)quinolin-3-yl)ethanone hydrochloride] |  |  |  |  |  |  | 0.67 µM | 3.2 µM | 1.5 µM |  | 0.41 µM | 0.62 µM | 0.002 µM | 
18 | CC(=O)c1cnc2ccc(-c3cc(F)c(O)c(Cl)c3)cc2c1N[C@H]1CCC[C@@H](CN(C)C)C1 [Example 826, 1-(6-(3-chloro-5-fluoro-4-hydroxyphenyl)-4-((1S,3R)-3-((dimethylamino)methyl)cyclohexylamino)quinolin-3-yl)ethanone hydrochloride] |  |  |  |  |  |  | 0.48 µM | 1.9 µM | 0.22 µM | 0.0083 µM | 0.25 µM | 0.54 µM |  | 
19 | CCN(CC)C[C@H]1CC[C@H](Nc2c(C(C)=O)cnc3ccc(-c4cc(Cl)c(O)c(OC)c4)cc23)CC1 [Example 791, 1-(6-(3-chloro-4-hydroxy-5-methoxyphenyl)-4-(1R,4R)-4-((diethylamino)methyl)cyclohexylamino)quinolin-3-yl)ethanone hydrochloride] |  |  |  |  |  |  | 0.49 µM | 9.3 µM | 0.43 µM |  | 0.58 µM | 0.27 µM | 0.0031 µM | 
20 | CCC(=O)c1cnc2ccc(-c3cc(Cl)c(O)c(OC)c3)cc2c1Nc1ccc(CN(C)C)cc1 [Example 769, 1-(6-(3-chloro-4-hydroxy-5-methoxyphenyl)-4-(4-((dimethylamino)methyl)phenylamino)quinolin-3-yl)propan-1-one] |  |  |  |  |  |  | 0.79 µM | 2.8 µM | 0.14 µM |  | 0.12 µM | 0.48 µM | 0.0049 µM | 
